Key:
Y4R = target: T1, Y4R (Homo sapiens, UniProt P50391); test: IP accumulation assay, chimeric GαΔ6qi4myr, Y4R; type: cell-based; settings: chimeric GαΔ6qi4myr co-transfected, transiently transfected HEK293 cells, mean of at least three independent experiments
T1 construct: expressed in transfected cells; host or cells: HEK293, transient
Method: (§1) For measuring IP accumulation, HEK293 cells grown to 70–80% confluency in 6-well plates were transiently co-transfected using Metafectene Pro (2.5 μl/μg DNA; Biontex) with plasmids containing receptor and/or mock (empty pcDNA3.1) (for endogenous Gq-coupling) using 4 μg total DNA in a ratio of 3:1 following the manufacturer’s instructions. For testing Gα16- and GαΔ6qi4myr-coupling, plasmids encoding the corresponding Gα protein were co-transfected instead of mock. Gα16 is naturally promiscuous and stimulates the phospholipase C (PLC) pathway leading to IP production, while the exchange of the C-terminal four amino acids of Gαq for the corresponding residues of Gαi1 in the chimeric GαΔ6qi4myr confers the ability to couple to Gi/o protein-preferring receptors but still stimulate PLC, thus specifically redirecting downstream cellular signaling. 16 h post transfection, the cells were seeded into white 384-well plates at a density of 20,000 cells/well. Media was removed 24 h later and the cells were incubated with the indicated concentration of peptides for 1 h in HBSS + 20 mM LiCl. IP accumulation was measured with the HTRF-based IP-One Gq kit (Cisbio) on a microplate reader (Tecan Spark).
(§2) For in vitro activation, data is presented as mean ± SEM of at least three independent experiments conducted in technical triplicate. […] For the C. elegans NPRs, we considered the strongest response elicited by any of the peptides downstream of a particular receptor as the receptor’s maximal signal. This may or may not be the biological maximum that can be reached by the ‘true’ endogenous agonist. For the human receptors, the response to the established endogenous agonist reflected the maximal signal.

QRFPR = target: T2, QRFPR (Homo sapiens, UniProt Q96P65); test: IP accumulation assay, endogenous Gαq coupling, QRFPR; type: cell-based; settings: transiently transfected HEK293 cells, mean of at least three independent experiments
T2 construct: expressed in transfected cells; host or cells: HEK293, transient
T2 sequence (Q96P65 1-431): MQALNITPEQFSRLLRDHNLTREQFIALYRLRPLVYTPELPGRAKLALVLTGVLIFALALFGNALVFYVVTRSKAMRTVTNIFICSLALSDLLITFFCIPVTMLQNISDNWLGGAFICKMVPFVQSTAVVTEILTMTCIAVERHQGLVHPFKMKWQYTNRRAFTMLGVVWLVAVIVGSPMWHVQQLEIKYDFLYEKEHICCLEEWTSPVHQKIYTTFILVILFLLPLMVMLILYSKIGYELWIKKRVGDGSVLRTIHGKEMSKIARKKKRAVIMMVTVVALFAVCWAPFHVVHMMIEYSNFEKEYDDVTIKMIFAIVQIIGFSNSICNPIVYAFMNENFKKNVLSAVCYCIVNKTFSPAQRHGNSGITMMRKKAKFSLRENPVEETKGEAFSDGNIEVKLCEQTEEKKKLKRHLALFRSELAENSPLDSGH
Method: as §1, §2

NPR-3 = target: T3, NPR-3 (Caenorhabditis elegans, UniProt P90745); test: cAMP reporter gene assay, Gi/o (inhibition of forskolin-induced cAMP), NPR-3; type: cell-based, C. elegans; settings: for cAMP assay Gi, NPR-3: 4 h, lower = higher Gi/o activity, transfected HEK293, CRE-luciferase, mean of >=3 independent experiments; for cAMP, x-fold of forskolin (mean), NPR-3: 1 µM forskolin set to 1.00, transiently transfected HEK293 cells, mean of at least three independent experiments
T3 construct: expressed in transfected cells; host or cells: HEK293
T3 sequence (P90745 1-376): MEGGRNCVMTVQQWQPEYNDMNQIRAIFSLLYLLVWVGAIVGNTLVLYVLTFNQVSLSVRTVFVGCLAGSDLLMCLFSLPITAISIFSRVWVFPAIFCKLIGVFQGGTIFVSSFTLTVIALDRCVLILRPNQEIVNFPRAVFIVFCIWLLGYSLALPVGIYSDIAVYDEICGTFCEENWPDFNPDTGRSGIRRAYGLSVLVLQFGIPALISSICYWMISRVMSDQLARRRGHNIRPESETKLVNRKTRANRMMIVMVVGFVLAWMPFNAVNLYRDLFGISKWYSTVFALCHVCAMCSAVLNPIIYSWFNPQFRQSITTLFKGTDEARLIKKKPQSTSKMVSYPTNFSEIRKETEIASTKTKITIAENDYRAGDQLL
Method: (§3) Activation of Gs and Gi/o was assessed with a cAMP reporter gene assay. HEK293 cells grown to 70–80% confluency in 6-well plates were transiently co-transfected with vectors encoding the receptor and the cAMP reporter gene plasmid pGL4.29 [luc2P/CRE/Hygro] (Promega; 4 μg total, 1:1 ratio) using Metafectene Pro (3 μl/μg DNA; Biontex) following the manufacturer’s instructions. 16 h post transfection, the cells were seeded into white 384-well plates at a density of 20,000 cells/well. On the next day, the medium was removed and the cells were stimulated with 20 μl of peptide solution (or forskolin as positive control) in serum-free DMEM for 4 h. For measuring Gi/o activity, the peptide solutions additionally contained 1 μM forskolin to elevate cellular cAMP levels. After incubation, the luciferase substrate OneGlo in lysis buffer (Promega) was added and the luminescence was measured in a microplate reader Tecan Spark (Tecan). Data were analyzed with GraphPad Prism 5.03 and are shown as fold of basal or fold of forskolin in case of Gαi/o activity.
as §2

NPR-1 = target: T4, NPR-1 (Caenorhabditis elegans, UniProt Q18534); test: cAMP reporter gene assay, Gi/o (inhibition of forskolin-induced cAMP), NPR-1; type: cell-based, C. elegans; parameters: host or cells: HEK293; settings: lower = higher Gi/o activity; for cAMP assay Gi, NPR-1: 4 h, transfected HEK293, CRE-luciferase, mean of >=3 independent experiments; for cAMP, x-fold of forskolin (mean), NPR-1: inhibition of cAMP production induced by 1 µM forskolin (set to 1.00), transiently transfected HEK293 cells, mean of at least three independent experiments
T4 sequence (Q18534 1-457): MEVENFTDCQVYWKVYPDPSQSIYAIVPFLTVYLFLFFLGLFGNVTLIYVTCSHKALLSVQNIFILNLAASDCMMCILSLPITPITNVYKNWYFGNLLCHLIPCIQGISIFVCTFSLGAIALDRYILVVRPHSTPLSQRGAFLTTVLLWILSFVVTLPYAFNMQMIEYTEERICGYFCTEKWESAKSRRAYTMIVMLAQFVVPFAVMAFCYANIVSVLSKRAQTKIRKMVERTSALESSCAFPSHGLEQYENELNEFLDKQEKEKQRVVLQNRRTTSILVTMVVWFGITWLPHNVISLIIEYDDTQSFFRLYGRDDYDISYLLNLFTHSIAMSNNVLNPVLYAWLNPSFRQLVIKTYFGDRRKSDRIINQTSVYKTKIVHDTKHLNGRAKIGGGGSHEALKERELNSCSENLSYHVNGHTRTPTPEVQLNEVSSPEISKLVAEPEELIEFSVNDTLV
Method: as §3, §2

[1] = 0.1 µM peptide + 1 µM forskolin (set to 1.00)
[2] = 10 µM peptide + 1 µM forskolin (set to 1.00)

T1 sequence (P50391 whole entry): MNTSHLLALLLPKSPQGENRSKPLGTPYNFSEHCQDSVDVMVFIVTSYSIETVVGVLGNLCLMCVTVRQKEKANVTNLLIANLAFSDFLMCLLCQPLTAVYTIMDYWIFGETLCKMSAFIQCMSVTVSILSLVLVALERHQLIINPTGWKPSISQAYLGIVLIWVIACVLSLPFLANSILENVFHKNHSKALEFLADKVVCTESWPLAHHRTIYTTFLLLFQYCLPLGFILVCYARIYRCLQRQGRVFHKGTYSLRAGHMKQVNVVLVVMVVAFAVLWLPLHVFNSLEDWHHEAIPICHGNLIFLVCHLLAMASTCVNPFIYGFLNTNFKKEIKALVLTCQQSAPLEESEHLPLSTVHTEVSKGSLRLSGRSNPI

Row | IP accumulation, x-fold of basal (mean), Y4R (Y4R; 0.1 µM peptide) | IP accumulation, x-fold of basal (mean), Y4R (Y4R; 10 µM peptide) | IP accumulation, x-fold of basal (mean), QRFPR# (QRFPR; 0.1 µM peptide) | IP accumulation, x-fold of basal (mean), QRFPR# (QRFPR; 10 µM peptide) | cAMP assay Gi, NPR-3 (NPR-3; [1]) | cAMP, x-fold of forskolin (mean), NPR-3 (NPR-3; 0.1 µM peptide) | cAMP assay Gi, NPR-3 (NPR-3; [2]) | cAMP, x-fold of forskolin (mean), NPR-3 (NPR-3; 10 µM peptide) | cAMP assay Gi, NPR-1 (NPR-1; [1]) | cAMP, x-fold of forskolin (mean), NPR-1 (NPR-1; 0.1 µM peptide) | cAMP assay Gi, NPR-1 (NPR-1; [2]) | cAMP, x-fold of forskolin (mean), NPR-1 (NPR-1; 10 µM peptide) | Substance
1 | 1.38 x-fold of basal | 1.28 x-fold of basal | 0.95 x-fold of basal | 1.21 x-fold of basal | 0.68 x-fold of forskolin | 0.66 x-fold of forskolin | 0.87 x-fold of forskolin | 0.86 x-fold of forskolin | 0.58 x-fold of forskolin | 0.54 x-fold of forskolin | 0.53 x-fold of forskolin | 0.50 x-fold of forskolin | APKPKFIRF-NH2 [FLP-5-1, C. elegans FMRFamide-like peptide, C-terminally amidated, synthesized by SPPS]
2 | 1.45 x-fold of basal | 1.04 x-fold of basal | 1.26 x-fold of basal | 0.98 x-fold of basal |  | 0.94 x-fold of forskolin |  | 0.83 x-fold of forskolin |  | 0.77 x-fold of forskolin |  | 0.76 x-fold of forskolin | ASPSFIRF-NH2 [FLP-4-2, C. elegans FMRFamide-like peptide, C-terminally amidated, synthesized by SPPS]
3 | 1.31 x-fold of basal | 1.29 x-fold of basal | 1.42 x-fold of basal | 1.52 x-fold of basal |  | 0.85 x-fold of forskolin |  | 0.89 x-fold of forskolin |  | 0.87 x-fold of forskolin |  | 0.89 x-fold of forskolin | NPENDTPFGTMRF-NH2 [FLP-3-4, C. elegans FMRFamide-like peptide, C-terminally amidated, synthesized by SPPS]
4 | 1.28 x-fold of basal | 1.45 x-fold of basal | 1.07 x-fold of basal | 0.92 x-fold of basal |  | 0.87 x-fold of forskolin |  | 1.02 x-fold of forskolin |  | 0.98 x-fold of forskolin |  | 0.89 x-fold of forskolin | AGSDPNFLRF-NH2 [FLP-1-2, C. elegans FMRFamide-like peptide, C-terminally amidated, synthesized by SPPS]

From paper PMC6751662, “Pharmacological and functional similarities of the human neuropeptide Y system in C. elegans challenges phylogenetic views on the FLP/NPR system” (Cell Communication and Signaling : CCS, 2019)
